Measurements reported in patent US11840686B2, “Modulation of prekallikrein (PKK) expression” (Ionis Pharmaceuticals, Inc., priority 2013, dated 2023).
Strand notation (5' to 3'): a small letter for the sugar, then the base; units joined by * are phosphorothioate-linked, units joined directly phosphodiester-linked; [ ] holds rarer units or linkages, { } end groups; capitals alone tell only the bases. e = 2'-O-(2-methoxyethyl) (MOE); [5mC] = 5-methylcytosine; d = 2'-deoxy (DNA)

How the values were obtained:
human PKK mRNA [1] = experiment: Antisense inhibition of human PKK mRNA in HepaRG cells, 3,000 nM (Example 1); assay type: cell-based; details: Table 4; HepaRG cells, electroporation with 3,000 nM antisense oligonucleotide, approx. 24 hours; PKK mRNA by RT-PCR (RTS3454), relative to untreated control cells
Summary of the method: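 Values give percent PKK mRNA reduction relative to untreated controls, normalised to RIBOGREEN total RNA. mRNA was quantified by real-time PCR (RTS3454) about 24 h after electroporation. Each 20-mer MOE gapmer was delivered at 3,000 nM into 20,000 HepaRG cells per well.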

human PKK mRNA [2] = experiment: Dose-dependent antisense inhibition of human PKK in HepaRG cells, 0.12-10.00 uM (Example 4); assay type: cell-based; details: electroporation, ~16 h; for percent inhibition of PKK at 0.12 μM: Table 33, 0.12 μM; for percent inhibition of PKK at 0.37 μM: Table 33, 0.37 μM; for percent inhibition of PKK at 1.11 μM: Table 33, 1.11 μM; for percent inhibition of PKK at 3.33 μM: Table 33, 3.33 μM; for percent inhibition of PKK at 10.00 μM: Table 33, 10.00 μM; for IC50: Table 33, PKK mRNA
Description: Cells were plated at a density of 20,000 cells per well and transfected using electroporation with 0.12 μM, 0.37 μM, 1.11 μM, 3.33 μM, and 10.00 μM concentrations of antisense oligonucleotide. After a treatment period of approximately 16 hours, RNA was isolated from the cells and PKK mRNA levels were measured by quantitative real-time PCR. Human PKK primer probe set RTS3454 was used to measure mRNA levels. PKK mRNA levels were adjusted according to total RNA content, as measured by RIBOGREEN®. The antisense oligonucleotides were tested in a series of experiments that had similar culture conditions. Results are presented as percent inhibition of PKK, relative to untreated control cells.
The half maximal inhibitory concentration (IC50) of each oligonucleotide is also presented.

human PKK mRNA [3] = experiment: Human PKK mRNA in liver of human KLKB1 transgenic mice (Example 7); assay type: in vivo; details: twice a week for 3 weeks
Description: (§1) Transgenic mice containing a 37,390 base pair fragment of the human KLKB1 gene sequence (chromosome 4: position 187148672-187179625, accession no: NC_000004.11) were treated with ISIS antisense oligonucleotides selected from studies described above, which were evaluated for efficacy in this model.
(§2) Groups of transgenic mice were injected subcutaneously twice a week for 3 weeks with 2.5 mg/kg/week, 5.0 mg/kg/week, 10 mg/kg/week or 20 mg/kg/week of ISIS 546232, ISIS 546251, ISIS 546254, ISIS 546343, ISIS 546828, ISIS 547455, ISIS 547457, ISIS 547927, and ISIS 548048. One group of transgenic mice was injected subcutaneously twice a week for 3 weeks with PBS. Mice were euthanized 48 hours after the last dose, and organs and plasma were harvested for further analysis.
To evaluate the effect of ISIS oligonucleotides on target reduction, RNA was extracted from liver tissue for real-time PCR analysis of human PKK. Results are presented as percent inhibition of PKK mRNA, relative to PBS control.

PKK protein = experiment: Plasma PKK protein levels in human KLKB1 transgenic mice (Example 7); assay type: in vivo; details: plasma, twice a week for 3 weeks
Description: as §1, §2
Plasma PKK protein levels were evaluated in all groups. Results are presented as percent inhibition of PKK protein, relative to PBS control.

PKK mRNA = PKK mRNA in cynomolgus monkey liver (Example 8); assay type: in vivo; details: 40 mg/kg s.c., loading then weekly to week 13; day 87 or 88, 48 h after final dose
Description: Cynomolgus monkeys were treated with ISIS antisense oligonucleotides selected from studies described above. Antisense oligonucleotide efficacy and tolerability were evaluated. The human antisense oligonucleotides tested are cross-reactive with the rhesus genomic sequence (GENBANK Accession No. NW_001118167.1 truncated from nucleotides 2358000 to 2391000 and designated herein as SEQ ID NO: 18).
On day 87 or 88, 48 hours after the final dose, RNA was extracted from liver tissue for real-time PCR analysis of PKK using primer probe set RTS3455 (forward sequence […], designated herein as SEQ ID NO: 23; reverse sequence […], designated herein as SEQ ID NO: 24; probe sequence […], designated herein as SEQ ID NO: 25). The results were normalized to the housekeeping gene, Cyclophilin. Results are presented as percent inhibition of PKK mRNA, relative to PBS control.

human PKK mRNA [4] = experiment: Antisense inhibition of human PKK mRNA in HepaRG cells, 5,000 nM (Example 2); assay type: cell-based; details: electroporation with 5,000 nM antisense oligonucleotide, approx. 24 hours, PKK mRNA by RT-PCR (RTS3454), relative to untreated control cells
Summary of the method: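 Chimeric MOE gapmers with full phosphorothioate backbones were tested once at 5,000 nM in electroporated HepaRG cells. After about 24 hours, quantitative PCR measured PKK mRNA relative to untreated control cells.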

human PKK mRNA [5] = experiment: Dose-dependent antisense inhibition of human PKK in HepaRG cells, 0.19-5.00 uM (Example 5); assay type: cell-based; details: HepaRG cells; for percent inhibition of PKK at 0.19 μM / percent inhibition of PKK at 0.56 μM / percent inhibition of PKK at 1.67 μM / percent inhibition of PKK at 5.00 μM: electroporation, approximately 16 hours; for percent inhibition of PKK mRNA, 0.19 μM: 0.19 μM antisense oligonucleotide; for percent inhibition of PKK mRNA, 0.56 μM: 0.56 μM antisense oligonucleotide; for percent inhibition of PKK mRNA, 1.67 μM: 1.67 μM antisense oligonucleotide; for percent inhibition of PKK mRNA, 5.00 μM: 5.00 μM antisense oligonucleotide
Summary of the method: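 PKK mRNA knockdown was measured by real-time PCR (primer probe set RTS3454) about 16 h after electroporating 20,000 HepaRG cells per well with oligonucleotide at four doses from 0.19 to 5.00 μM. Levels were adjusted to RIBOGREEN-measured total RNA, and IC50 values were calculated.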

| Substance | % inhibition (human PKK mRNA [1]) [%] | percent inhibition of PKK at 0.12 μM (human PKK mRNA [2]) [%] | percent inhibition of PKK at 0.37 μM (human PKK mRNA [2]) [%] | percent inhibition of PKK at 1.11 μM (human PKK mRNA [2]) [%] | percent inhibition of PKK at 3.33 μM (human PKK mRNA [2]) [%] | percent inhibition of PKK at 10.00 μM (human PKK mRNA [2]) [%] | IC50 (human PKK mRNA [2]) [nM] | % inhibition of PKK mRNA in the transgenic mice liver relative to the PBS control (human PKK mRNA [3]; 2.5 mg/kg/week sc) [%] | % inhibition of PKK mRNA in the transgenic mice liver relative to the PBS control (human PKK mRNA [3]; 5 mg/kg/week sc) [%] | % inhibition of PKK mRNA in the transgenic mice liver relative to the PBS control (human PKK mRNA [3]; 10 mg/kg/week sc) [%] | % inhibition of PKK mRNA in the transgenic mice liver relative to the PBS control (human PKK mRNA [3]; 20 mg/kg/week sc) [%] | % inhibition of PKK protein levels in the transgenic mice relative to the PBS control (PKK protein; 2.5 mg/kg/week sc) [%] | % inhibition of PKK protein levels in the transgenic mice relative to the PBS control (PKK protein; 5 mg/kg/week sc) [%] | % inhibition of PKK protein levels in the transgenic mice relative to the PBS control (PKK protein; 10 mg/kg/week sc) [%] | % inhibition of PKK protein levels in the transgenic mice relative to the PBS control (PKK protein; 20 mg/kg/week sc) [%] | % inhibition of PKK mRNA in the cynomolgus monkey liver relative to the PBS control (PKK mRNA) [%] | % inhibition (human PKK mRNA [4]; Table 7, HepaRG cells) [%] | percent inhibition of PKK mRNA, 0.19 μM (human PKK mRNA [5]) [%] | percent inhibition of PKK mRNA, 0.56 μM (human PKK mRNA [5]) [%] | percent inhibition of PKK mRNA, 1.67 μM (human PKK mRNA [5]) [%] | further results |
| --- | --- | --- | --- | --- | --- | --- | --- | --- | --- | --- | --- | --- | --- | --- | --- | --- | --- | --- | --- | --- | --- |
| 531234 (e[5mC]*eA*e[5mC]*eT*eG*dT*dA*d[5mC]*dT*dA*dG*dT*dT*dT*d[5mC]*e[5mC]*eT*eA*eT*eA; antisense) [compound 531234] | 86 | 24 | 21 | 47 | 72 | 82 | 1400 | – | – | – | – | – | – | – | – | – | – | – | – | – | – |
| 531235 (eT*e[5mC]*eA*e[5mC]*eT*dG*dT*dA*d[5mC]*dT*dA*dG*dT*dT*dT*e[5mC]*e[5mC]*eT*eA*eT; antisense) [compound 531235] | 86 | 27 | 55 | 62 | 84 | 95 | 400 | – | – | – | – | – | – | – | – | – | – | – | – | – | – |
| 531236 (eA*eT*e[5mC]*eA*e[5mC]*dT*dG*dT*dA*d[5mC]*dT*dA*dG*dT*dT*eT*e[5mC]*e[5mC]*eT*eA; antisense) [compound 531236] | 87 | 4 | 28 | 59 | 85 | 93 | 800 | – | – | – | – | – | – | – | – | – | – | – | – | – | – |
| 546232 (eA*eG*eG*eA*eA*d[5mC]*dT*dT*dG*dG*dT*dG*dT*dG*d[5mC]*e[5mC]*eA*e[5mC]*eT*eT) [compound 546232] | – | – | – | – | – | – | – | 57 | 53 | 30 | 84 | 0 | 6 | 33 | 79 | 88 | 86 | 0 | 74 | 95 | percent inhibition of PKK at 0.19 μM (human PKK mRNA [5]; Table 39): 49%; percent inhibition of PKK at 0.56 μM (human PKK mRNA [5]; Table 39): 50%; percent inhibition of PKK at 1.67 μM (human PKK mRNA [5]; Table 39): 94%; percent inhibition of PKK at 5.00 μM (human PKK mRNA [5]; Table 39): 97%; IC50 (human PKK mRNA [5]; 4 point dose response, Table 39): 200 nM; percent inhibition of PKK mRNA, 5.00 μM (human PKK mRNA [5]): 96%; IC50 (human PKK mRNA [5]; 0.19-5.00 μM): 200 nM |
| 546251 (eG*eG*e[5mC]*eA*eA*dA*d[5mC]*dA*dT*dT*d[5mC]*dA*d[5mC]*dT*d[5mC]*e[5mC]*eT*eT*eT*eA) [compound 546251] | – | – | – | – | – | – | – | 13 | 51 | 66 | 79 | 22 | 30 | 52 | 69 | 90 | 92 | 19 | 45 | 91 | percent inhibition of PKK at 0.19 μM (human PKK mRNA [5]; Table 36): 31%; percent inhibition of PKK at 0.56 μM (human PKK mRNA [5]; Table 36): 60%; percent inhibition of PKK at 1.67 μM (human PKK mRNA [5]; Table 36): 99%; percent inhibition of PKK at 5.00 μM (human PKK mRNA [5]; Table 36): 89%; IC50 (human PKK mRNA [5]; 4 point dose response, Table 36): 500 nM; percent inhibition of PKK mRNA, 5.00 μM (human PKK mRNA [5]): 97%; IC50 (human PKK mRNA [5]; 0.19-5.00 μM): 600 nM |
| 547455 (antisense eA*eT*eA*eT*e[5mC]*dA*dT*dG*dA*dT*dT*d[5mC]*d[5mC]*d[5mC]*dT*eT*e[5mC]*eT*eG*eA) [compound 547455] | – | – | – | – | – | – | – | 0 | 69 | 45 | 62 | 0 | 0 | 32 | 78 | 90 | – | – | – | – | % inhibition (human PKK mRNA [4]; Table 9 experiment, HepaRG cells, 20,000 cells per well): 88%; % inhibition (human PKK mRNA [4]; Table 10 experiment, HepaRG cells, 20,000 cells per well): 66% |
